Measured values as given in paper PMC10304174, “Development of Zeise’s Salt Derivatives Bearing Substituted Acetylsalicylic Acid Substructures as Cytotoxic COX Inhibitors” (Pharmaceutics, 2023).

Columns and labels:
[1] = Complex stability by capillary electrophoresis (decrease of initial complex over time); format: physicochemical; conditions: MeOH/water (50/50, v/v), 1 mM, 37 °C, CE
Method: The analysis was performed as previously described. A 50 mM sodium tetraborate solution (pH = 9.3, adjusted with 1 M NaOH), served as background electrolyte (BGE). Washing of novel capillaries consecutively with 1 M NaOH (45 min), water (45 min), and BGE (45 min) was performed. The hydrodynamic injection mode was utilized to introduce the samples into the capillary (50 mbar for 2 s). The capillary was kept at 25 °C, and the autosampler was thermostatted at 37 °C with an external water bath. For separation, the voltage was set to 20 kV, and the detection was carried out at the wavelength of 230 nm. Before each measurement, flushing of the capillary with 0.1 M NaOH (3 min), water (3 min), and BGE (5 min) took place. The samples were dissolved in methanol (MeOH) and further diluted in equal parts by volume with water to give a final concentration of 1 mM. Triple determinations were performed, and the half-lives (τ½) are presented as mean ± SD of ≥3 independent experiments. Samples, washing solutions, and buffers were filtered through a membrane with 0.22 µm porosity and degassed by ultrasonication before use. To simplify the reaction dynamics from a possible second-order to pseudo-first-order, one of two reactants must be present in great excess (>10 to 25-fold). If this condition is fulfilled, logarithmic plotting of the gradual decrease in the other reactant’s concentration (or increase in the concentration of a product, respectively) against the time yields a straight line, and half-lives can be calculated.
An already-established method was used to study the stability of the X-ASA-Prop-PtCl3 and X-ASA-But-PtCl3 complexes. The degradation products were separated by capillary electrophoresis using a fused-silica capillary ([…] × 75 µm, effective length: 56 cm, capillary temperature: 25 °C) and a 50 mM tetraborate buffer (pH = 9.3) as BGE. For separation, the voltage was set to 20 kV and the compounds were detected at 230 nm. Benzoic acid was used as an internal standard. Exemplary electropherograms of each complex can be found in the Supplementary Material (Figures S1–S24).
The complexes (1 mM) were dissolved in MeOH or MeOH/water (50/50, v/v) and stored at 37 °C. The decrease in the initial amount of complex was monitored time-dependently by CE, and the half-life (τ½) was calculated (Table 2).

HT-29 cells = assay: Crystal violet assay, antiproliferative effects in HT-29 cells; format: cell-based; conditions: HT-29 (COX-1/2-positive), 72 h
Method: (§1) In order to investigate the cytotoxic effects in MCF-7 and HT-29 cells, an already published crystal violet assay was used. The cells (HT-29: 3 × 10^3 cells per well in 100 µL of medium; MCF-7: 2 × 10^3 cells per well in 100 µL of medium) were seeded in their exponential growth phase in completed DMEM into 96-well microtiter plates in quadruples. […] Cells were then fixed with a solution of 1% (v/v) glutaric dialdehyde in PBS. In order to determine the cell biomass, the chromatin of the attached cells was stained with crystal violet, and the bound dye was extracted with EtOH (70%). The absorbance was measured at 590 nm. Mean values ± SD of ≥2 independent experiments were calculated, and the activity of the complexes was expressed as the cell mass of the vehicle-treated control, which was set to 100%.
(§2) The compounds were investigated regarding their cytotoxicity (in vitro) employing an already published crystal violet assay. It is based on the quantification of the cell biomass of living cells by staining the chromatin. In order to evaluate the possible influence of COX inhibition on cell growth, Zeise’s salt derivatives were investigated comparatively in HT-29 and MCF-7 cell lines.

MCF-7 cells = assay: Crystal violet assay, antiproliferative effects in MCF-7 cells; format: cell-based; conditions: MCF-7 (COX-negative), 72 h
Method: as §1, §2

COX-2 = molecular target: T1, COX-2 (Homo sapiens, UniProt P35354); assay: COX Inhibitor Screening Assay (EIA) on isolated COX-2 isoenzyme; format: biochemical; conditions: for Inhibition of COX-2: 1 µM, incubation 10 min
T1 construct: purchased Cayman Chemicals
T1 sequence (P35354 18-604): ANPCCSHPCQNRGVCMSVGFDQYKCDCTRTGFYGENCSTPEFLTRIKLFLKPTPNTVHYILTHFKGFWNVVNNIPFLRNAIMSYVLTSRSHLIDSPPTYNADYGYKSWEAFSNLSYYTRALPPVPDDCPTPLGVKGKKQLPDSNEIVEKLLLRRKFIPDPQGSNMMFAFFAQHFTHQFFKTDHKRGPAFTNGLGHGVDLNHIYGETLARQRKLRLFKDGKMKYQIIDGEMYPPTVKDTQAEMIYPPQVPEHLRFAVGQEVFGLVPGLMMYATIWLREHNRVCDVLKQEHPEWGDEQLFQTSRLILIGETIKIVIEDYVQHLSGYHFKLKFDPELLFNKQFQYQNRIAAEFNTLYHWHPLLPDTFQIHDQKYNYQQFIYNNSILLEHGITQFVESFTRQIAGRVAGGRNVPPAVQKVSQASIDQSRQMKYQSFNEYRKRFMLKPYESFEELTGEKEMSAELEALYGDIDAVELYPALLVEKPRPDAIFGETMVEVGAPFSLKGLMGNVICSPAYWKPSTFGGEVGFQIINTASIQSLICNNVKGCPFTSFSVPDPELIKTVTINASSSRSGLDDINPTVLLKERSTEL
Method: The incubation of the respective complexes with the isoenzymes was exactly 10 min. The values of COX inhibition were calculated as the mean of duplicates and shown as the mean ± SD of ≥2 independent experiments.

Row | SMILES | Half-life (τ½) [1] [h] | IC50 (HT-29 cells) [µM] | IC50 (MCF-7 cells) [µM] | Inhibition of COX-2 (COX-2) [%] | COX-2 selectivity (COX-2; from inhibition at 1 µM, COX-2 over COX-1) [fold]
1 | CC(=O)Oc1c(C)cccc1C(=O)OC[CH]1[CH2][Pt-]1([Cl])([Cl])[Cl].[K+] (centres unmarked) [3-CH3-ASA-Prop-PtCl3, Potassium trichlorido[η^2-(prop-2-en-1-yl)-2-acetoxy-3-methylbenzoate]platinate(II)] | 0.585 ± 0.0383 | 27.8 ± 3.4 | 71.4 ± 3.1 | – | –
2 | CC(=O)Oc1cccc(C)c1C(=O)OC[CH]1[CH2][Pt-]1([Cl])([Cl])[Cl].[K+] (centres unmarked) [6-CH3-ASA-Prop-PtCl3, Potassium trichlorido[η^2-(prop-2-en-1-yl)-2-acetoxy-6-methylbenzoate]platinate(II)] | 0.747 ± 0.0183 | 27.4 ± 1.4 | 76.2 ± 1.4 | – | –
3 | CC(=O)Oc1cccc(Cl)c1C(=O)OCC[CH]1[CH2][Pt-]1([Cl])([Cl])[Cl].[K+] (centres unmarked) [6-Cl-ASA-But-PtCl3, Potassium trichlorido[η^2-(but-3-en-1-yl)-2-acetoxy-6-chlorobenzoate]platinate(II)] | 51.8 ± 7.7 | 57.5 ± 19.2 | 42.3 ± 8.3 | – | –
4 | CC(=O)Oc1ccc(F)cc1C(=O)OC[CH]1[CH2][Pt-]1([Cl])([Cl])[Cl].[K+] (centres unmarked) [5-F-ASA-Prop-PtCl3, Potassium trichlorido[η^2-(prop-2-en-1-yl)-2-acetoxy-5-fluorobenzoate]platinate(II)] | 0.46 ± 0.02 | 110 ± 21.7 | 106 ± 4.1 | – | –
5 | CC(=O)Oc1c(F)cccc1C(=O)OC[CH]1[CH2][Pt-]1([Cl])([Cl])[Cl].[K+] (centres unmarked) [3-F-ASA-Prop-PtCl3, Potassium trichlorido[η^2-(prop-2-en-1-yl)-2-acetoxy-3-fluorobenzoate]platinate(II)] | 0.508 ± 0.0233 | 86.9 ± 3.9 | 85.2 ± 21.8 | 20.7 | –
6 | CC(=O)Oc1cc(F)ccc1C(=O)OC[CH]1[CH2][Pt-]1([Cl])([Cl])[Cl].[K+] (centres unmarked) [4-F-ASA-Prop-PtCl3, Potassium trichlorido[η^2-(prop-2-en-1-yl)-2-acetoxy-4-fluorobenzoate]platinate(II)] | 0.535 ± 0.0183 | 107 ± 3.1 | 150 ± 33.6 | 17.5 | –
7 | CC(=O)Oc1c(F)cccc1C(=O)OCC[CH]1[CH2][Pt-]1([Cl])([Cl])[Cl].[K+] (centres unmarked) [3-F-ASA-But-PtCl3, Potassium trichlorido[η^2-(but-3-en-1-yl)-2-acetoxy-3-fluorobenzoate]platinate(II)] | 51.9 ± 2.5 | 69.4 ± 1.5 | 97.4 ± 17.6 | – | –
8 | CC(=O)Oc1ccc(Cl)cc1C(=O)OCC[CH]1[CH2][Pt-]1([Cl])([Cl])[Cl].[K+] (centres unmarked) [5-Cl-ASA-But-PtCl3, Potassium trichlorido[η^2-(but-3-en-1-yl)-2-acetoxy-5-chlorobenzoate]platinate(II)] | 62.4 ± 1.6 | 49.1 ± 6.2 | 28.2 ± 4.5 | – | –
9 | N.N.[Cl][Pt][Cl] [Cisplatin, reference compound] | – | 2.6 ± 0.1 | 3.7 ± 0.3 | – | –
10 | CC(=O)Oc1c(Cl)cccc1C(=O)OCC[CH]1[CH2][Pt-]1([Cl])([Cl])[Cl].[K+] (centres unmarked) [3-Cl-ASA-But-PtCl3, Potassium trichlorido[η^2-(but-3-en-1-yl)-2-acetoxy-3-chlorobenzoate]platinate(II)] | 47.0 ± 14.0 | 43 ± 10.9 | 33.5 ± 1.9 | – | –
11 | CC(=O)Oc1cc(F)ccc1C(=O)OCC[CH]1[CH2][Pt-]1([Cl])([Cl])[Cl].[K+] (centres unmarked) [4-F-ASA-But-PtCl3, Potassium trichlorido[η^2-(but-3-en-1-yl)-2-acetoxy-4-fluorobenzoate]platinate(II)] | 49.9 ± 4.5 | 89.2 ± 3.5 | 105.9 ± 0.4 | – | –
12 | CC(=O)Oc1cccc(C)c1C(=O)OCC[CH]1[CH2][Pt-]1([Cl])([Cl])[Cl].[K+] (centres unmarked) [6-CH3-ASA-But-PtCl3, Potassium trichlorido[η^2-(but-3-en-1-yl)-2-acetoxy-6-methylbenzoate]platinate(II)] | 35.0 ± 3.7 | 20.2 ± 0.2 | 35.3 ± 0.9 | – | –
13 | CC(=O)Oc1cccc(F)c1C(=O)OC[CH]1[CH2][Pt-]1([Cl])([Cl])[Cl].[K+] (centres unmarked) [6-F-ASA-Prop-PtCl3, Potassium trichlorido[η^2-(prop-2-en-1-yl)-2-acetoxy-6-fluorobenzoate]platinate(II)] | 0.485 ± 0.005 | 114 ± 7.1 | ≥ 200 | – | –
14 | CC(=O)Oc1ccc(F)cc1C(=O)OCC[CH]1[CH2][Pt-]1([Cl])([Cl])[Cl].[K+] (centres unmarked) [5-F-ASA-But-PtCl3, Potassium trichlorido[η^2-(but-3-en-1-yl)-2-acetoxy-5-fluorobenzoate]platinate(II)] | 48.1 ± 4.3 | 75.8 ± 13.2 | 93.8 ± 10.8 | – | –
15 | CC(=O)Oc1cccc(Cl)c1C(=O)OC[CH]1[CH2][Pt-]1([Cl])([Cl])[Cl].[K+] (centres unmarked) [6-Cl-ASA-Prop-PtCl3, Potassium trichlorido[η^2-(prop-2-en-1-yl)-2-acetoxy-6-chlorobenzoate]platinate(II)] | 0.658 ± 0.0317 | 38.4 ± 3.4 | 85.9 ± 9.2 | – | –
16 | CC(=O)Oc1cc(C)ccc1C(=O)OCC[CH]1[CH2][Pt-]1([Cl])([Cl])[Cl].[K+] (centres unmarked) [4-CH3-ASA-But-PtCl3, Potassium trichlorido[η^2-(but-3-en-1-yl)-2-acetoxy-4-methylbenzoate]platinate(II)] | 65.7 ± 7.2 | 27.1 ± 1.5 | 38.8 ± 6.5 | – | –
17 | CC(=O)Oc1cccc(F)c1C(=O)OCC[CH]1[CH2][Pt-]1([Cl])([Cl])[Cl].[K+] (centres unmarked) [6-F-ASA-But-PtCl3, Potassium trichlorido[η^2-(but-3-en-1-yl)-2-acetoxy-6-fluorobenzoate]platinate(II)] | 34.6 ± 1.5 | 99.7 ± 0.4 | 92.6 ± 23.8 | – | –
18 | CC(=O)Oc1cc(Cl)ccc1C(=O)OC[CH]1[CH2][Pt-]1([Cl])([Cl])[Cl].[K+] (centres unmarked) [4-Cl-ASA-Prop-PtCl3, Potassium trichlorido[η^2-(prop-2-en-1-yl)-2-acetoxy-4-chlorobenzoate]platinate(II)] | 0.545 ± 0.03 | 89.8 ± 23.9 | 70.7 ± 3.6 | – | 1.5
19 | CC(=O)Oc1c(C)cccc1C(=O)OCC[CH]1[CH2][Pt-]1([Cl])([Cl])[Cl].[K+] (centres unmarked) [3-CH3-ASA-But-PtCl3, Potassium trichlorido[η^2-(but-3-en-1-yl)-2-acetoxy-3-methylbenzoate]platinate(II)] | 45.9 ± 6.0 | 18 ± 2.4 | 45.6 ± 7.2 | – | –
